The values that follow come from US12226410B2, “Methods for enhancing cellular clearance of pathological molecules via activation of the cellular protein ykt6” (NORTHWESTERN UNIVERSITY, priority 2019, dated 2025).

The test system of one experiment is a-syn. As to the kind of experiment: FTI treatment of wild-type mice: a-syn levels in cortex. In kind it is in vivo. The following applies: daily i.p. 0.9 mg/kg, 14 days. The method, then: FIGS. 15A, 15B, 15C, 15D, 15E, and 15F. FTI treatment of wild-type mice enhances ykt6 SNARE complexes, lysosomal activity, and reduces a-syn. 15A) Wild-type mice (C57Bl/6) were i.p. injected daily with FTI for 14 days at 0.9 mg/kg and compared to vehicle injected mice. Extracts from the cortex were analyzed for cytosolic (cyt) and membrane (mem) distribution of ykt6 (veh, n=5; FTI, n=6). 15B) Representative gel filtration/western blot analysis of cortical extracts of veh or FTI injected wild-type mice. Inputs are shown on the left. NSE indicates equal column loading. 15C) Quantification of ykt6 and STX5 complexes (ca. 120A) from gel filtration analysis in C (n=4 mice). Fraction 1 corresponds to complexes at 120A, while fractions 7-9 correspond to ykt6 monomers at 22-14 A. 15D) The levels of post ER (endo H resistant) GCase were analyzed by western blot and post ER/ER ratios were quantified from the cortex of FTI treated mice (veh, n=5; FTI, n=6). 15E) GCase activity was assessed in cortical lysates and normalized to total protein (veh, n=4; FTI, n=6). 15F) a-Syn levels were quantified from cytosolic or membrane isolated fractions from the cortex of wild-type FTI treated mice (veh, n=4; FTI, n=6). For all quantifications, values are the mean+/−SEM, *p<0.05.
Treatment of C57Bl/6 and DASYN53 mice with farnesyltransferase inhibitors. […]

A further experiment has as its system A53T iPSn. As to the kind of experiment: Measurement of neuron viability (neurofilament). It counts as cell-based, human. Conditions: A53T iPSn analyzed at day 100; 5 nM, 14d. The method, then:
FIGS. 6A, 6B, 6C, 6D, 6E, 6F, and 6G. FTIs enhance lysosomal GCase activity and reduce pathological a-syn by blocking ykt6 farnesylation. 6A) GCase activity in FTI-treated A53T iPSn at d80 (LNK-754 5 nM, 5d). 6B) GCase activity in FTI-treated A53T iPSn expressing empty vector (vect) or ykt6-CS (n=4). 6C) Lysosomal GCase activity was assessed in FTI-treated SHSY5Y cells transfected with scrambled or ykt6 shRNA (KD) (n=3). 6D) Quantification of Triton X-100 soluble (T-sol) a-syn by western blot from FTI-treated A53T iPSn (5 nM, 7d). *, non-specific band. (n=3). 6E) Quantification of insoluble a-syn from A53T iPSn as in D (n=3). 6F) Insoluble a-syn in FTI-treated H4 cells (5 nM, 5 days) transfected with either scrambled or ykt6 shRNA (n=6). 6G) Neuron viability was assessed in FTI-treated A53T iPSn (5 nM, 14d from d86-d100) by quantification of neurofilament protein. […]
Measurement of neuron viability. iPSC-neurons were seeded on a PDL/laminin coated 96 well plate and analyzed and treated with either lentivirus expressing ykt6 CS vs empty vector, or DMSO vs 5 nM FTI (LNK-754) for 14 days. […] Neurofilament intensity was determined using Image Studio software (version 2.1 Li-cor) and normalized to cell volume. Replicates represent values from four individual culture wells and were analyzed by Student's T-test using GraphPad Prism software V 6.0. […]

With `C#Cc1cccc(-c2cc(=O)n(C)c3ccc([C@](O)(c4ccc(Cl)cc4)c4cncn4C)cc23)c1` [LNK-754], the a-syn levels result with a-syn is given as “reduced a-syn levels”. Besides, the neuron viability entry with A53T iPSn is listed as “improved neuron viability”.
